Reference: publication PMC3871589, “Evaluation of STAT3 Signaling in ALDH+ and ALDH+/CD44+/CD24− Subpopulations of Breast Cancer Cells” (PLoS ONE, 2013)

Columns and labels:
[1] = tested on: ALDH+/CD44+/CD24− subpopulation of MDA-MB-231 and SUM159 breast cancer cells; assay: Tumorsphere formation of ALDH+/CD44+/CD24− subpopulation; type: cell-based, human; settings: Figure 5E
Procedure: (§1) ALDH^+ and ALDH^+/CD44^+/CD24^− cells were plated as single cells in ultra-low attachment six-well plates at a density of 250, 500, 1000 or 50,000 viable cells/well as previously described. On the second day after seeding, the ALDH^+ cancer cells were treated with 2.5–10 µmol/L of LLL12 or Stattic. For tumorsphere forming capacity assay, ALDH^+ or ALDH^− cells were plated as single cells in ultra-low attachment six-well plates at a density of 250, 500 or 1000 viable cells/well. Tumorsphere growth was observed under a microscope 10 to 15 days later.

[2] = tested on: ALDH+ subpopulations of SK-BR-3, MDA-MB-231, and SUM159; assay: Tumorsphere formation, ALDH+ subpopulations; type: cell-based, human; settings: 2.5–10 µmol/L, 10 to 15 days
Procedure: as §1

Syk = Syk (Homo sapiens, UniProt P43405); assay: Kinase profiler assay, Syk; type: biochemical; settings: 10 concentrations, 100 µM highest; Table S3
Procedure: (§2) The effects of LLL12 on twenty six purified human protein kinases were performed at the Millipore UK Limited (Dundee, UK) and Reaction Biology Corp. (Malvern, PA) using the Kinase profiler assay. Assays contained a peptide substrate, purified recombinant human protein kinases to be tested, and gamma-labeled ATP, magnesiumion. Radioactive phosphorylated product was measured and quantitated via a scintillation counter.

ErB2/HER2 = ErB2/HER2 (Homo sapiens, UniProt P04626); settings: read-out: IC50 on ErB2/HER2; bound stated jointly for the other protein kinases; Table S3
Sequence of ErB2/HER2 (P04626 23-1255): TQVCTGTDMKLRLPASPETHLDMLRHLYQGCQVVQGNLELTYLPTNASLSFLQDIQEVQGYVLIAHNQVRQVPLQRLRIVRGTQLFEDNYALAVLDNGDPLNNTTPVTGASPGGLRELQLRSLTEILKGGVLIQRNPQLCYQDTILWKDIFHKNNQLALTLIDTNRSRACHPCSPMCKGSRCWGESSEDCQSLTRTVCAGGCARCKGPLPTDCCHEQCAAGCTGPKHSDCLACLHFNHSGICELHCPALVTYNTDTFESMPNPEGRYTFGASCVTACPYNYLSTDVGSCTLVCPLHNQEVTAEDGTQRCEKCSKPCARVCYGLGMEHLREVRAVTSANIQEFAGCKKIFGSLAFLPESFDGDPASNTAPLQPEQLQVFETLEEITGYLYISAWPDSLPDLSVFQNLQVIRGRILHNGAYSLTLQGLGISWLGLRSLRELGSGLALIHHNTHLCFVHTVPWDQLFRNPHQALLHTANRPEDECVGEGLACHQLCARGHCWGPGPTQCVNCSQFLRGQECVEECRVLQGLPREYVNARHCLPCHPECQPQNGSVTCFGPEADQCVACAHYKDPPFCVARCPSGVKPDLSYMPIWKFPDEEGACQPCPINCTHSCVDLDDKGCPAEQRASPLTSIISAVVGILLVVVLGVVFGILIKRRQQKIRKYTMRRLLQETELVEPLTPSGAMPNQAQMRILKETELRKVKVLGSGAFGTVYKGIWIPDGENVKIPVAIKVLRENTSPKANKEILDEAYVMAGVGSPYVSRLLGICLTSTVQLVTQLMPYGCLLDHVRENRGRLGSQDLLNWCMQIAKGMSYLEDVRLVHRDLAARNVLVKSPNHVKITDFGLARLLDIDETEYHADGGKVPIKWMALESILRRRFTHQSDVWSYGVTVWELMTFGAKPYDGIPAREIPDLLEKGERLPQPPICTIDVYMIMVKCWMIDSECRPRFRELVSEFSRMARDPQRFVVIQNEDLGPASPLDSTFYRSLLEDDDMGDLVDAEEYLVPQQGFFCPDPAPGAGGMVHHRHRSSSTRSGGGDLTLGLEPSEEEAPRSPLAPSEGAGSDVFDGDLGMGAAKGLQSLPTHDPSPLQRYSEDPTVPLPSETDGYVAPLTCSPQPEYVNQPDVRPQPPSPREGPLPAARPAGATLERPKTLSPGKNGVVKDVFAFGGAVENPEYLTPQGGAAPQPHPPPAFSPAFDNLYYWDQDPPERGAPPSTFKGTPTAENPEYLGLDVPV
Procedure: as §2

ALDH1 = ALDH1 protein expression in ALDH+ cells; type: cell-based, human
Procedure: (§3) After sorting by flow cytometry, ALDH^+ and ALDH^+/CD44^+/CD24^− stem-like cells were cultured in serum-free stem cell medium in ultra-low attachment six-well plates (Corning) to maintain cancer stem cell characteristics. ALDH^−, ALDH^−/CD44^+/CD24^+cells and un-separated cells were cultured in regular medium and replaced with identical stem cell medium for three days before being harvested. To assess the effects of STAT3 inhibitors, ALDH^+ and ALDH^+/CD44^+/CD24^− subpopulations of breast cancer cells were treated with LLL12 (5 µmol/L) of or static (10 µmol/L) for 24 hours. STAT3, or control GFP shRNA lentivirus (CTL ShRNA) was introduced into ALDH^+ breast cancer stem-like cells for 48 hours, then followed by selection with puromycin (0.2 µg/ml) for 72 hours. Antibodies (Cell Signaling Tech.) against phospho-specific STAT3 (Tyrosine 705) (P-STAT3, Y705), ERK1/2 (Threonine 202/Tyrosine 204), cleaved Poly (ADP-ribose) polymerase (PARP), ALDH1, cleaved caspase-3, and GAPDH were used for western blots.

[3] = tested on: ALDH+/CD44+/CD24− subpopulation of MDA-MB-231 and SUM159 breast cancer cells; assay: Cell viability of ALDH+/CD44+/CD24− subpopulation; type: cell-based, human; settings: Figure 5D
Procedure: The breast cancer cells were seeded in 96-well plates (3,000 cells/well) in triplicates in a serum-free mammary epithelial basal medium. The following day, cancer cells were treated with 1 to 10 µmol/L of LLL12 or Stattic for 72 hours, STAT3 ShRNA or control GFP shRNA lentivirus (CTL ShRNA) for 48 hours. MTT (Thiazolyl Blue Tetrazolium Bromide, Sigma-Aldrich) assay was used to determine the cell viability.

[4] = tested on: STAT3 target genes Cyclin D1, survivin, Bcl-2 and Twist1; assay: Expression of STAT3 target genes in un-separated breast cancer cells; type: cell-based, human; settings: un-separated MDA-MB-231, SK-BR-3, SUM159 cells; 10 µM, 24 hours
Procedure: (§4) LLL12 was synthesized in Dr. Pui-Kai Li’s laboratory (College of Pharmacy, The Ohio State University). Un-separated cells were treated with 10 µM of LLL12 or DMSO for 24 hours, and the phosphorylation of STAT3 (Y705), and ERK 1/2 (T202/Y204), and expression of STAT3 downstream genes, cleaved caspase-3, and PARP were detected by Western blots. (JPG) Click here for additional data file.

STAT3 = settings: cited from earlier work
STAT3-regulated genes = assay: RT-PCR of STAT3-regulated genes in ALDH+/CD44+/CD24− cells; type: cell-based, human; settings: 5 µM, 24 h
Procedure: The ALDH^+ and ALDH^+/CD44^+/CD24^− subpopulations of breast cancer cells were treated with LLL12 (5 µM) or DMSO for 24 h. RNA from the cells was then collected using RNeasy Kits (Qiagen). cDNA was constructed from a 500 ng sample of RNA using Omniscript RT (Qiagen). Primer sequences and source information can be found in Table S1. The intensity of bands was quantified and normalized to GAPDH.

[5] = tested on: ERK 1/2 (T202/Y204) phosphorylation; assay: Western blot of ERK phosphorylation in un-separated breast cancer cells; type: cell-based, human; settings: 10 µM, 24 hours
Procedure: as §3, §4

[6] = tested on: MDA-MB-231 ALDH+ breast cancer stem-like cells; assay: Mouse xenograft of MDA-MB-231 ALDH+ breast cancer stem-like cells; type: in vivo, NOD/SCID mice; settings: 5 mg/kg IP daily
Procedure: All animal studies were conducted in accordance with the principles and standard procedures approved by IACUC at the Research Institute at Nationwide Children’s Hospital and the University Committee on the Use and Care of Animals at the University of Michigan. ALDH^+ subpopulations of MDA-MB-231 and ALDH^+/CD44^+/CD24^− subpopulations of SUM-159 breast cancer cells (1×10^5) respectively were injected subcutaneous (s.c.) into the flank area of female Non-obese diabetic (NOD)/Severe combined immunodeficiency (SCID) mice which were purchased from Jackson Laboratory.

c-Raf = c-Raf (Homo sapiens, UniProt P04049); assay: Kinase profiler assay, c-Raf; type: biochemical; settings: bound stated jointly for the other protein kinases; Table S3
Sequence of c-Raf (P04049 whole entry): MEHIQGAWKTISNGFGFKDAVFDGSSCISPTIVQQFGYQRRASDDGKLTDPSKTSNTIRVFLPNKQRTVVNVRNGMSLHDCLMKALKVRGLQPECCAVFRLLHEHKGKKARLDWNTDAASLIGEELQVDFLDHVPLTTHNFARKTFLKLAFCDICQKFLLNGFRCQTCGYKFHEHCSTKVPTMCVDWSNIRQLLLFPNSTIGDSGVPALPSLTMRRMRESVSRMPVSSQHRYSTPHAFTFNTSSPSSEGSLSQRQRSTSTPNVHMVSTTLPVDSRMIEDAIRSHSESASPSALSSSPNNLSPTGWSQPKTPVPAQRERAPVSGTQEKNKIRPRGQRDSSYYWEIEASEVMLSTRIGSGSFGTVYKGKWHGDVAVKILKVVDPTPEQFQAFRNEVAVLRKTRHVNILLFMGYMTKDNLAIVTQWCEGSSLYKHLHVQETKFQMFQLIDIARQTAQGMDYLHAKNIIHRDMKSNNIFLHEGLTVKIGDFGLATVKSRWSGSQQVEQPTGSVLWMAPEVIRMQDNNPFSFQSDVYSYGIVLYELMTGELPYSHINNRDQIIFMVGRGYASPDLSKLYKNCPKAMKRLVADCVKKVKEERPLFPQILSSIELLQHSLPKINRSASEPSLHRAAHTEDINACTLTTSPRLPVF
Procedure: as §2

NS(=O)(=O)c1cccc2c1C(=O)c1cccc(O)c1C2=O [LLL12]
tumorsphere forming capacity [1]: inhibited | tumorsphere formation [2]: suppress | IC50 (Syk): > 100 µM | IC50 (ErB2/HER2): ≥ 77.9 µM | expression of ALDH1 protein (ALDH1): down-regulated | cell viability [3]: inhibited | expression of STAT3 target genes Cyclin D1, survivin, Bcl-2 and Twist1 [4]: inhibited | STAT3 DNA binding activity (STAT3): inhibited | expression of Cyclin D1, survivin, Bcl-2, Bcl-XL and Notch1 (STAT3-regulated genes): down-regulated | phosphorylation of ERK [5]: did not inhibit | tumor volume ([6]; 15 days, P<0.05 vs vehicle): significantly suppressed | tumor weight ([6]; 15 days, P<0.05 vs vehicle): significantly suppressed | P-STAT3 in tumor tissue ([6]; Western blot of tumors): decreased | cleaved caspase-3 in tumor tissue ([6]; Western blot of tumors): increased | IC50 (c-Raf): ≥ 77.9 µM
